We go through 5 compounds from ChEMBL document CHEMBL3085710, “Pahangensin A and B, two new antibacterial diterpenes from the rhizomes of Alpinia pahangensis Ridley” (2013).

Values after ≈ are worked out from the molar mass of the structure shown.

Assay [1] relates to Bacillus cereus. Put plainly: Antibacterial activity against Bacillus cereus Frankland and Frankland ATCC 11778 after overnight incubation by broth microdilution method. In kind it is functional. In general terms: In broth dilution the organism is exposed to a series of concentrations in liquid medium.
For assay [2], the system named is Bacillus subtilis. Description: Antibacterial activity against Bacillus subtilis (Ehrenberg) Cohn ATCC 6051 after overnight incubation by broth microdilution method. In kind it is functional.
Assay [3] concerns Staphylococcus aureus. Description: Antibacterial activity against Staphylococcus aureus Rosenbach ATCC 9144 after overnight incubation by broth microdilution method. In kind it is functional.
The test system of assay [4] is Salmonella typhimurium. Put plainly: Antibacterial activity against Salmonella typhimurium (Loeffler) Castellani and Chalmers ATCC 14028 after overnight incubation by broth microdilution method. In kind it is functional, Salmonella enterica subsp. enterica serovar Typhimurium. As to conditions: Salmonella enterica.
Assay [5] has as its system Salmonella sp. Description: Antibacterial activity against Salmonella sp. ATCC 700623 after overnight incubation by broth microdilution method. In kind it is functional.
The subject of assay [6] is Escherichia coli. Description: Antibacterial activity against Escherichia coli (Migula) Castellani and Chalmers ATCC 25922 after overnight incubation by broth microdilution method. In kind it is functional.

Compound `C=C1CC[C@H]2C(C)(C)CCC[C@]2(C)[C@H]1C/C=C(/C=O)CC(=O)OC` returned a minimum inhibitory concentration (MIC) in assay [1] of 52.1 µg/mL (≈ 157 µM).

With `C=C1CC[C@H]2C(C)(C)CCC[C@]2(C)[C@H]1/C=C/C1=C(C2=C(/C=C/[C@H]3C(=C)CC[C@H]4C(C)(C)CCC[C@]34C)COC2=O)C(=O)OC1`, the figures for the minimum inhibitory concentration (MIC) in assay [2], in assay [3] and in assay [1] were 31.2 µg/mL (≈ 52.2 µM), 52.1 µg/mL (≈ 87 µM) and 31.2 µg/mL (≈ 52.2 µM), respectively.

`O=C(N[C@H](CO)[C@H](O)c1ccc([N+](=O)[O-])cc1)C(Cl)Cl` [CHLORAMPHENICOL]: the MIC turned out to be 15.6 µg/mL (≈ 48.3 µM) in assay [4]; 15.6 µg/mL (≈ 48.4 µM) in assay [5]; 7.81 µg/mL (≈ 24.2 µM) in assay [6]; 15.6 µg/mL (≈ 48.4 µM) in assay [2]; 31.2 µg/mL (≈ 96.7 µM) in assay [3]; 15.6 µg/mL (≈ 48.4 µM) in assay [1].

In the case of `CC1(C)S[C@@H]2[C@H](NC(=O)Cc3ccccc3)C(=O)N2[C@H]1C(=O)O` [PENICILLIN G], the minimal inhibitory concentration (MIC) in assay [4] came to 125 µg/mL (≈ 374 µM); in assay [5], 31.2 µg/mL (≈ 93.5 µM); in assay [6], 125 µg/mL (≈ 374 µM); in assay [2], 15.6 µg/mL (≈ 46.7 µM); in assay [3], 3.91 µg/mL (≈ 11.7 µM); in assay [1] it was 62.5 µg/mL (≈ 187 µM).

Consider `CN[C@@H]1[C@H](O[C@H]2[C@H](O[C@H]3[C@H](O)[C@@H](O)[C@H](N=C(N)N)[C@@H](O)[C@@H]3N=C(N)N)O[C@@H](C)[C@]2(O)C=O)O[C@@H](CO)[C@H](O)[C@H]1O` [STREPTOMYCIN], for which the MIC in assay [4] was 62.5 µg/mL (≈ 107 µM); in assay [5], 15.6 µg/mL (≈ 26.9 µM); in assay [6], 15.6 µg/mL (≈ 26.9 µM); in assay [2] it was 31.2 µg/mL (≈ 53.7 µM); in assay [3] it was 31.2 µg/mL (≈ 53.7 µM); in assay [1] it was 15.6 µg/mL (≈ 26.9 µM).

Usually MIC stands for the least concentration at which growth counts as inhibited.
